In article PMC4224610 (Chemistry & biology, 2014):

Legend:
Type in all cases: biochemical
[1] = molecular target: T1, VhAasS (Vibrio harveyi, UniProt Q00IB3); experiment: UREA-PAGE of ACP loading; settings: holo-E. coli AcpP as acceptor, ATP, MgCl2, DTT, 37 °C overnight
[2] = molecular target: T1, VhAasS; experiment: UREA-PAGE and mass spectrometry of ACP loading; settings: holo-E. coli ACP as acceptor, ATP, MgCl2, pH 8, 37 °C overnight
[3] = molecular target: T2, TTHA0604 (Thermus thermophilus, UniProt Q5SKN9); experiment: coupled NADH assay at […] nm; settings: decanoic acid, ATP, MgCl2, pH 8 100 mM Tris
T2 sequence (Q5SKN9 1-541): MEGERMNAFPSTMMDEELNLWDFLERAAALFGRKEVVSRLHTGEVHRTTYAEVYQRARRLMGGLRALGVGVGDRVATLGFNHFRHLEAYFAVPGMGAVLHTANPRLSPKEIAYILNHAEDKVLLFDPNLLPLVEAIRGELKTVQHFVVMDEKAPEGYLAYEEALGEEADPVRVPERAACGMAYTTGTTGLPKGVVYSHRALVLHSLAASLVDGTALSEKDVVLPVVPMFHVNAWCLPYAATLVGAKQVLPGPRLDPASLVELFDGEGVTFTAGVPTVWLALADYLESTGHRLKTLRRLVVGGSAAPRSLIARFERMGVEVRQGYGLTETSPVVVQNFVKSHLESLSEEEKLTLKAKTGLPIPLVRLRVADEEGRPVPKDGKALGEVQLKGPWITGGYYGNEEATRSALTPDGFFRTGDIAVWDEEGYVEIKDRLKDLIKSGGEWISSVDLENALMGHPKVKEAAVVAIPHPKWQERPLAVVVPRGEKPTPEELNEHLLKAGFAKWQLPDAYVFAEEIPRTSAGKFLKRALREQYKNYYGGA

[4] = molecular target: T3, Slr1609 (Synechocystis sp. PCC 6803, UniProt P73004); experiment: coupled NADH assay at […] nm; settings: decanoic acid, ATP, MgCl2, pH 8 100 mM Tris
T3 sequence (P73004 1-696): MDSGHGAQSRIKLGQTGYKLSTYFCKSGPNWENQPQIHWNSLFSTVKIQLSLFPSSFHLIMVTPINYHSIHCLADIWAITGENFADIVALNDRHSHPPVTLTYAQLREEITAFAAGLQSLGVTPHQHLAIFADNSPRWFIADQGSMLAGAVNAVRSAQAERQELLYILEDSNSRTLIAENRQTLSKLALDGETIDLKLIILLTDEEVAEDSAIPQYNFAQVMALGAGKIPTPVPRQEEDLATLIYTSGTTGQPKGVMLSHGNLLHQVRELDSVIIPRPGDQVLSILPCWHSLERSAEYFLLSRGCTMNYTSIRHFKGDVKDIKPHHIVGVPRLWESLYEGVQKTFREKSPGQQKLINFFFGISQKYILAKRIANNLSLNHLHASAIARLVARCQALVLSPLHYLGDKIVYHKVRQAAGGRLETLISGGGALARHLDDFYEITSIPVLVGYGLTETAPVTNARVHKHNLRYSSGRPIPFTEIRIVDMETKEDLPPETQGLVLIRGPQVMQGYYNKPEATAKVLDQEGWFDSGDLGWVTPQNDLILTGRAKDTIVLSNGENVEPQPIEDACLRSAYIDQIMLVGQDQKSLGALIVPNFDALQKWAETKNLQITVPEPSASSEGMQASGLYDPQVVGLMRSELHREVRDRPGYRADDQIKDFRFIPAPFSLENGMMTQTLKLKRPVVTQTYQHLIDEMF

CCCCCCCCCC(=O)O [decanoic acid]
UREA-PAGE of ACP loading [1]: VhAasS showed increased loading over Slr1609, TTHA0604, and AAE15

O=C(O)CCCCC(=O)c1ccccc1 [5-benzoylvaleric acid]
UREA-PAGE and mass spectrometry of ACP loading [2]: functionalized fatty acids

CC(C)(COP(=O)(O)OP(=O)(O)OC[C@H]1O[C@@H](n2cnc3c(N)ncnc32)[C@H](O)[C@@H]1OP(=O)(O)O)[C@@H](O)C(=O)NCCC(=O)NCCS [coenzyme A]
coupled NADH assay at 340 nm; DTNB assay of CoA consumption; HPLC-MS [3]: both TTHA0604 and Slr1609 show acyl-CoA ligase activity
coupled NADH assay at 340 nm; DTNB assay of CoA consumption; HPLC-MS [4]: both TTHA0604 and Slr1609 show acyl-CoA ligase activity
